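Values below derive from 48-hour exposures of cells grown in 96-well plates, with endpoints linearly interpolated between the two concentrations bracketing the appropriate inhibition level. GI50 = concentration required for 50% inhibition of growth.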 Calls of active or inactive are those of the source. Cut-off read from the data, not from the text of the source: active = GI50 up to about 1.1 µM and inactive = higher.
Assays:
Assay in all cases: NCI-60 cell line screen, 48 h
BT-549 = system: BT-549
CAKI-1 = system: CAKI-1
CCRF-CEM = system: CCRF-CEM
COLO 205 = system: COLO 205
EKVX = system: EKVX
HCC 2998 = system: HCC 2998
HL-60 = system: HL-60
MDA-MB-231 = system: MDA-MB-231
MOLT-4 = system: MOLT-4
NCI-H23 = system: NCI-H23
OVCAR-3 = system: OVCAR-3
OVCAR-4 = system: OVCAR-4
PC-3 = system: PC-3
SF-295 = system: SF-295
T47D = system: T47D
TK-10 = system: TK-10
UO-31 = system: UO-31
LOX IMVI = system: LOX IMVI
MDA-MB-435 = system: MDA-MB-435
RPMI-8226 = system: RPMI-8226

CCCCS(=O)(=O)CCC(N)C(=O)O (stereo unspecified)
GI50 (BT-549): > 100 µM (inactive)
GI50 (CAKI-1): > 100 µM (inactive)
GI50 (CCRF-CEM): > 100 µM (inactive)
GI50 (COLO 205): > 100 µM (inactive)
GI50 (EKVX): > 100 µM (inactive)
GI50 (HCC 2998): > 100 µM (inactive)
GI50 (HL-60): > 100 µM (inactive)
GI50 (MDA-MB-231): > 100 µM (inactive)
GI50 (MOLT-4): > 100 µM (inactive)
GI50 (NCI-H23): > 100 µM (inactive)
GI50 (OVCAR-3): > 100 µM (inactive)
GI50 (OVCAR-4): > 100 µM (inactive)
GI50 (PC-3): > 100 µM (inactive)
GI50 (SF-295): > 100 µM (inactive)
GI50 (T47D): > 100 µM (inactive)
GI50 (TK-10): > 100 µM (inactive)
GI50 (UO-31): > 100 µM (inactive)

COP(=O)(CP(=O)(OC)OCCC(C)CCC=C(C)C)OC (stereo unspecified)
GI50 (BT-549): > 100 µM (inactive)
GI50 (CAKI-1): > 100 µM (inactive)
GI50 (CCRF-CEM): > 100 µM (inactive)
GI50 (COLO 205): > 100 µM (inactive)
GI50 (EKVX): > 100 µM (inactive)
GI50 (HCC 2998): > 100 µM (inactive)
GI50 (LOX IMVI): > 100 µM (inactive)
GI50 (MDA-MB-231): 19.1 µM (inactive)
GI50 (MDA-MB-435): > 100 µM (inactive)
GI50 (MOLT-4): > 100 µM (inactive)
GI50 (NCI-H23): > 100 µM (inactive)
GI50 (OVCAR-3): > 100 µM (inactive)
GI50 (OVCAR-4): > 100 µM (inactive)
GI50 (PC-3): > 100 µM (inactive)
GI50 (SF-295): > 100 µM (inactive)
GI50 (T47D): > 100 µM (inactive)
GI50 (TK-10): > 100 µM (inactive)
GI50 (UO-31): > 100 µM (inactive)

OCC1OC(N2CCN(C3OC(CO)C(O)C(O)C3O)CC2)C(O)C(O)C1O (stereo unspecified)
GI50 (BT-549): > 100 µM (inactive)
GI50 (CAKI-1): > 100 µM (inactive)
GI50 (COLO 205): > 100 µM (inactive)
GI50 (EKVX): > 100 µM (inactive)
GI50 (HCC 2998): > 100 µM (inactive)
GI50 (LOX IMVI): > 100 µM (inactive)
GI50 (MDA-MB-231): > 100 µM (inactive)
GI50 (MDA-MB-435): > 100 µM (inactive)
GI50 (MOLT-4): > 100 µM (inactive)
GI50 (NCI-H23): > 100 µM (inactive)
GI50 (OVCAR-3): > 100 µM (inactive)
GI50 (OVCAR-4): > 100 µM (inactive)
GI50 (PC-3): > 100 µM (inactive)
GI50 (RPMI-8226): > 100 µM (inactive)
GI50 (SF-295): > 100 µM (inactive)
GI50 (T47D): > 100 µM (inactive)
GI50 (TK-10): > 100 µM (inactive)
GI50 (UO-31): > 100 µM (inactive)

COc1ccc(N2C(=O)/C(=C\c3cc(OC)c(OC)c(OC)c3)SC2c2ccccc2)cc1 (stereo unspecified)
GI50 (BT-549): 26.1 µM (inactive)
GI50 (CAKI-1): > 100 µM (inactive)
GI50 (CCRF-CEM): 21.2 µM (inactive)
GI50 (COLO 205): 62.5 µM (inactive)
GI50 (EKVX): 83.9 µM (inactive)
GI50 (HCC 2998): > 100 µM (inactive)
GI50 (HL-60): 10.4 µM (inactive)
GI50 (LOX IMVI): 29.6 µM (inactive)
GI50 (MDA-MB-231): > 100 µM (inactive)
GI50 (MDA-MB-435): 27.4 µM (inactive)
GI50 (MOLT-4): > 100 µM (inactive)
GI50 (NCI-H23): 33.1 µM (inactive)
GI50 (OVCAR-3): > 100 µM (inactive)
GI50 (OVCAR-4): 79.8 µM (inactive)
GI50 (RPMI-8226): 31.3 µM (inactive)
GI50 (SF-295): 50.5 µM (inactive)
GI50 (T47D): 42.6 µM (inactive)
GI50 (TK-10): > 100 µM (inactive)
GI50 (UO-31): 46.7 µM (inactive)

N#CCC(=O)N/N=C(\CCN1CCCC1)CC(c1ccccc1)c1c(O)c2ccccc2oc1=O (stereo unspecified)
GI50 (BT-549): 47.5 µM (inactive)
GI50 (CAKI-1): > 95.3 µM (inactive)
GI50 (CCRF-CEM): 39.4 µM (inactive)
GI50 (COLO 205): 25.5 µM (inactive)
GI50 (EKVX): > 100 µM (inactive)
GI50 (HCC 2998): 21.2 µM (inactive)
GI50 (HL-60): 24.5 µM (inactive)
GI50 (LOX IMVI): > 41.3 µM (inactive)
GI50 (MDA-MB-231): 40.3 µM (inactive)
GI50 (MDA-MB-435): 57 µM (inactive)
GI50 (MOLT-4): 24.5 µM (inactive)
GI50 (NCI-H23): 97.1 µM (inactive)
GI50 (OVCAR-3): 65.3 µM (inactive)
GI50 (OVCAR-4): > 86.3 µM (inactive)
GI50 (PC-3): 64.7 µM (inactive)
GI50 (RPMI-8226): 32.9 µM (inactive)
GI50 (SF-295): > 100 µM (inactive)
GI50 (TK-10): > 78.9 µM (inactive)
GI50 (UO-31): 59.8 µM (inactive)

COc1cc(OC)nc(Nc2c(C#N)c3nc4ccccc4n3c3ccccc23)n1
GI50 (BT-549): 15.8 µM (inactive)
GI50 (CAKI-1): 29.1 µM (inactive)
GI50 (CCRF-CEM): > 100 µM (inactive)
GI50 (COLO 205): > 100 µM (inactive)
GI50 (EKVX): 72.3 µM (inactive)
GI50 (HCC 2998): > 100 µM (inactive)
GI50 (HL-60): > 100 µM (inactive)
GI50 (LOX IMVI): 21.4 µM (inactive)
GI50 (MDA-MB-435): > 100 µM (inactive)
GI50 (MOLT-4): > 100 µM (inactive)
GI50 (NCI-H23): 32.1 µM (inactive)
GI50 (OVCAR-3): 31.3 µM (inactive)
GI50 (OVCAR-4): 22.3 µM (inactive)
GI50 (PC-3): 40.3 µM (inactive)
GI50 (RPMI-8226): > 100 µM (inactive)
GI50 (SF-295): 21.6 µM (inactive)
GI50 (T47D): > 100 µM (inactive)
GI50 (TK-10): 26.5 µM (inactive)
GI50 (UO-31): 53.1 µM (inactive)

CCOC(=O)C(C(=O)OCC)C(=S)NC1OC(COC(C)=O)C(OC(C)=O)C(OC(C)=O)C1OC(C)=O (stereo unspecified)
GI50 (BT-549): > 100 µM (inactive)
GI50 (CAKI-1): > 100 µM (inactive)
GI50 (CCRF-CEM): > 100 µM (inactive)
GI50 (COLO 205): > 100 µM (inactive)
GI50 (EKVX): > 100 µM (inactive)
GI50 (HCC 2998): > 100 µM (inactive)
GI50 (HL-60): > 100 µM (inactive)
GI50 (LOX IMVI): > 100 µM (inactive)
GI50 (MDA-MB-231): > 100 µM (inactive)
GI50 (MDA-MB-435): > 100 µM (inactive)
GI50 (MOLT-4): > 100 µM (inactive)
GI50 (NCI-H23): > 100 µM (inactive)
GI50 (OVCAR-3): > 100 µM (inactive)
GI50 (OVCAR-4): > 100 µM (inactive)
GI50 (RPMI-8226): > 100 µM (inactive)
GI50 (SF-295): > 100 µM (inactive)
GI50 (T47D): > 100 µM (inactive)
GI50 (UO-31): > 100 µM (inactive)

CC(C)/C(Cl)=N\OC(=O)Nc1ccc(F)cc1
GI50 (BT-549): 11.2 µM (inactive)
GI50 (CCRF-CEM): 0.916 µM (active)
GI50 (COLO 205): 2.63 µM (inactive)
GI50 (EKVX): 5.62 µM (inactive)
GI50 (HCC 2998): 15.7 µM (inactive)
GI50 (HL-60): 1.55 µM (inactive)
GI50 (LOX IMVI): 2.05 µM (inactive)
GI50 (MDA-MB-231): 3.47 µM (inactive)
GI50 (MOLT-4): 1.66 µM (inactive)
GI50 (NCI-H23): 18.2 µM (inactive)
GI50 (OVCAR-3): 8.22 µM (inactive)
GI50 (PC-3): 17.4 µM (inactive)
GI50 (RPMI-8226): 1.94 µM (inactive)
GI50 (SF-295): 14.4 µM (inactive)
GI50 (T47D): 6.53 µM (inactive)
GI50 (TK-10): 4.8 µM (inactive)
GI50 (UO-31): 5.85 µM (inactive)

CCOC(=O)N1CCN(Cc2cc(=O)n3cc(C)ccc3n2)CC1
GI50 (BT-549): > 100 µM (inactive)
GI50 (CAKI-1): > 100 µM (inactive)
GI50 (CCRF-CEM): > 100 µM (inactive)
GI50 (COLO 205): > 100 µM (inactive)
GI50 (EKVX): > 100 µM (inactive)
GI50 (HCC 2998): > 100 µM (inactive)
GI50 (HL-60): > 100 µM (inactive)
GI50 (LOX IMVI): > 100 µM (inactive)
GI50 (MDA-MB-231): > 100 µM (inactive)
GI50 (MDA-MB-435): > 100 µM (inactive)
GI50 (MOLT-4): > 100 µM (inactive)
GI50 (NCI-H23): > 100 µM (inactive)
GI50 (OVCAR-3): > 100 µM (inactive)
GI50 (OVCAR-4): > 100 µM (inactive)
GI50 (PC-3): > 100 µM (inactive)
GI50 (RPMI-8226): > 100 µM (inactive)
GI50 (SF-295): > 100 µM (inactive)
GI50 (TK-10): > 100 µM (inactive)
GI50 (UO-31): > 100 µM (inactive)

COc1ccc(NC(=S)Nc2c(C)n(C)n(-c3ccccc3)c2=O)cc1
GI50 (BT-549): > 100 µM (inactive)
GI50 (CAKI-1): > 100 µM (inactive)
GI50 (CCRF-CEM): > 100 µM (inactive)
GI50 (COLO 205): > 100 µM (inactive)
GI50 (EKVX): > 100 µM (inactive)
GI50 (HCC 2998): > 100 µM (inactive)
GI50 (HL-60): > 100 µM (inactive)
GI50 (LOX IMVI): > 100 µM (inactive)
GI50 (MDA-MB-231): > 100 µM (inactive)
GI50 (MDA-MB-435): > 100 µM (inactive)
GI50 (MOLT-4): > 100 µM (inactive)
GI50 (NCI-H23): > 100 µM (inactive)
GI50 (OVCAR-3): > 100 µM (inactive)
GI50 (PC-3): > 100 µM (inactive)
GI50 (RPMI-8226): > 100 µM (inactive)
GI50 (SF-295): > 100 µM (inactive)
GI50 (TK-10): > 100 µM (inactive)
GI50 (UO-31): > 100 µM (inactive)

C[n+]1ccccc1/C1=c2\cc/c([nH]2)=C(\c2cccc[n+]2C)C2=N/C(=C(/c3cccc[n+]3C)C3C=CC(N3)/C(c3cccc[n+]3C)=C3/C=CC1=N3)C=C2
GI50 (BT-549): > 100 µM (inactive)
GI50 (CAKI-1): > 100 µM (inactive)
GI50 (CCRF-CEM): 3.26 µM (inactive)
GI50 (COLO 205): 75.2 µM (inactive)
GI50 (EKVX): > 100 µM (inactive)
GI50 (HCC 2998): > 100 µM (inactive)
GI50 (HL-60): > 100 µM (inactive)
GI50 (LOX IMVI): > 100 µM (inactive)
GI50 (MDA-MB-435): 57 µM (inactive)
GI50 (MOLT-4): 58.1 µM (inactive)
GI50 (NCI-H23): > 100 µM (inactive)
GI50 (OVCAR-3): 58.7 µM (inactive)
GI50 (OVCAR-4): > 100 µM (inactive)
GI50 (PC-3): > 100 µM (inactive)
GI50 (RPMI-8226): 56.1 µM (inactive)
GI50 (SF-295): > 100 µM (inactive)
GI50 (T47D): > 100 µM (inactive)
GI50 (TK-10): > 100 µM (inactive)
GI50 (UO-31): > 100 µM (inactive)
